Assay results from patent publication US6596863B2, “Medical composition containing nitroetheneamine Derivative or salt there of as active constituent” (Ishihara Sangyo Kaisha, Ltd., priority 1998, dated 2003).
Where two headings read alike, the source gives them in different places. Marks after values point to notes of the source that are not given here.

Key:
[1] = test system: Meth A/AD cells (mouse fibrosarcoma); assay type: in vivo; set-up: Tumor volume (Day 22) Average ± standard deviation / Tumor growth inhibition ratio (%) / Tumor volume (Day 24) Average ± standard deviation: dose or concentration left out as unconfirmed; conditions: for inhibition ratio of tumor growth of Meth A/AD: intraperitoneal administration, total of 10 times, male BALB/c mouse, tumor volume vs vehicle control
Description: Meth A mouse fibrosarcoma cells intraperitoneally subcultured in mouse (supplied from Sasaki Institute) were cultured at 39° C. for 10 days in 5% CO2 (using 10% fetal bovine serum-containing RPMI culture medium (manufactured by Flow Laboratories)) and then inoculated subcutaneously to BALB/c mouse. The tumor grown for 30 days, was taken out and passed through a metal mesh to obtain single cells, which were again returned and continuously cultured in vitro (37° C.). […] On the other hand, the Meth A/AD strain always produces and secretes MMP-2 in the supernatant in in vitro culture, but when TNF-α (50 ng/ml) was added in the culture solution, it produced MMP-9 remarkably.
With reference to the method by Keneda et al (Cancer Research, Vol. 58, 290-295, 1998), the inhibitory effect on tumor growth were evaluated. Namely, 1×10^6 Meth A/AD cells cultured in vitro (suspended in 0.05 ml of a Hanks equilibrium salt solution) were intradermaly transplanted to the dosal skin of a male BALB/c AnNCrj mouse of 5 weeks old (purchased from Charles River Japan, Inc.) (Day 0). […] Compound No. 107 was suspended in a 1% Tween 80 physiological sodium chloride aqueous solution, and Compound No. 164 was dissolved in 100 mM Tris-HCl (pH 8.5)/150 mM NaCl, for administration. To the vehicle control group, the respective solvents containing no test materials were administered in the same manner. The measurement of the body weight and the observation of the general findings were carried out everyday up to Day 22 or 24, and the tumor diameters (the long diameter and the short diameter) were measured by a slide gauge every one day, and the difference in the tumor volume between the vehicle control group and the drug-treated group was evaluated. The tumor volume was calculated in accordance with the calculation formula of [(long diameter)×(short diameter)^2×½].

[2] = test system: CPAE cells (bovine pulmonary-derived vascular endothelical cells); assay: Inhibitory action against capillary-like tube formation of vascular endothelial cells, three dimensional collagen gel culture; assay type: cell-based; conditions: for Number of networks Average ± SD: n = 5, Day 4
Description: With reference to the method disclosed in a literature (Hayashi, J. N. et al, Virchows arch. (B), Vol. 60,245-252, 1991, Lee, D. Y. et al, Life Science, Vol. 60, 127-134, 1997), evaluation was carried out by the following method.
7 Parts by volume of type I-a collagen (manufactured by Nitta Gelatin K. K.) and 2 parts by volume of Dulbecco's Modified Eagle Medium (concentration: 5 times, containing no NaHCO3; No. D-5648, manufactured by Sigma Co.) were thoroughly mixed under cooling with ice, and then one part by volume of a collagen gel-reconstructing buffer solution (2.2% NaHCO3/0.2M HEPES/0.05N NaOH) was added thereto. To withdraw bubbles, centrifugal separation and supersonic treatment were carried out, and then 400 μl of the gel was introduced into 24 well multi-well plate (Code 3047, manufactured by Falcon Co.) and incubated at 37° C. for about 10 minutes for gelation.
On the gelled collagen, CPAE cells (bovine pulmonary-derived vascular endothelical cells; ATCC CCL209, purchased from Dainippon Seiyaku K. K.) was inoculated in a concentration of 4×10^4 cells/400 μl/well (Day 0). Thereafter the cells were cultured overnight at 37° C. in a 5% CO2 incubator. Next day (Day 1), after confirming that the cells were normally proliferating, the culture solution was removed by aspiration, and a fresh collagen gel (prepared in the same manner as the above layer) was overlaid in an amount of 200 μl/well and gelled.
On the gel, the test materials dissolved in 10% fetal bovine serum-containing Dulbecco's Modified Eagle Medium (No. D-5648, manufactured by Sigma Co.) (prepared to have a concentration four times the final concentration) was added in an amount of 200 μl, and culturing was continued under the same conditions. Upon expiration of three days from stratification (Day 4), capillary-like tube formation was observed by a microscope, and an optional field of view was photographed with 100 magnifications, whereupon the number of capillary-like structures formed (the number of networks) were visually counted with reference to the method disclosed in a literature by Yeong, H. et al (Cancer Research, Vol. 56, 2428-2433, 1996). For each test sample, 2 well treatment was carried out, and a total of five fields of view were photographed for evaluation.

human MMP-3 = target: T1, human MMP-3 (Homo sapiens, UniProt P08254); assay: Enzyme inhibition activity against MMP-3 (stromelysin-1), fluorescent peptide substrate NFF-3; assay type: biochemical; conditions: human MMP-3, substrate NFF-3, 37° C. for 2 hours
T1 construct: purchased Kabushiki Kaisha Yagai Chuo Kenkyusho YU-26003
T1 sequence (P08254 100-477): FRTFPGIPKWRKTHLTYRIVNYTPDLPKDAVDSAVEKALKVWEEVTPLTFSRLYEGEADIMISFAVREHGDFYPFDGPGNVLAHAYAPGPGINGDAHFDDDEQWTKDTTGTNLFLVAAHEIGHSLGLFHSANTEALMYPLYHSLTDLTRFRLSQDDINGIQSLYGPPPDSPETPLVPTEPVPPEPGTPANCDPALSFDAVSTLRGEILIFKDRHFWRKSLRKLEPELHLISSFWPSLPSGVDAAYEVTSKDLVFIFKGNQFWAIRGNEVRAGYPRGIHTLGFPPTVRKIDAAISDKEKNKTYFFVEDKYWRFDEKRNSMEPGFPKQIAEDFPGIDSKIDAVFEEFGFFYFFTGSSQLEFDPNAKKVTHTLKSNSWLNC
Description: The inhibition activity against human MMP-3 was measured using a fluorescent peptide substrate MOCAc-Arg-Pro-Lys-Pro-Val-Glu-Nva-Trp—Arg-Lys(Dnp)-NH2[NFF-3, manufactured by Peptide Institute, Inc. (No. 3168-v)] with reference to the method disclosed in a literature (Knight C. G. et al, FEBS Letters, Vol. 296, 263-266, 1992, Nagase H. et al, Journal of Biological Chemistry, Vol. 269, 20952-20957, 1994). Namely, into each well of a Fluoro Nunc plate (96C) white (No. 437842, manufactured by Nunc Co.), 180 μl of a MMP-3 solution (0.0125 unit/ml; No. YU-26003, manufactured by Kabushiki Kaisha Yagai Chuo Kenkyusho, purity: at least 99%), 10 μl of a test materials (the compound of the present invention) dissolved in DMSO and 10 μl of a peptide substrate […] (final concentration: 10 μM) were added and maintained at 37° C. for 2 hours in a dark place. Dilution of the enzyme was carried out by using 50 mM of Tris-HCl (pH 7.5) comprising 0.1M of NaCl, 10 mM of CaCl2, 0.05% Brij 35 and 0.02% of NaN3.
For the MMP-3 enzymatic activity, the amount of the decomposition product after the reaction was quantitatively analyzed as the change in the relative fluorescence intensity at a fluorescence wavelength of 400 nm with an excitation wavelength of 326 nm (using a variable fluorescence plate reader (variable wavelength type) Spectron FL-2575, manufactured by Towa Kagaku K. K.), and the inhibition activity of the test materials against the enzymatic activity was calculated by comparing the relative fluorescence intensities of the inhibitor added group and the non-added group after completion of the reaction.

Compound | inhibition ratio of tumor growth of Meth A/AD ([1]; 100 mg/kg) | Tumor growth inhibition ratio (%) ([1]; intraperitoneal, Day 22) | Tumor volume (Day 22) Average ± standard deviation ([1]; intraperitoneal, Day 22, vehicle control 1058 ± 556) | Inhibition ratio (%) against capillary-like tube formation ([2]; 0.1 μM) | Number of networks Average ± SD ([2]; 0.1 μM) | Inhibition ratio (%) against capillary-like tube formation ([2]; 1 μM) | Number of networks Average ± SD ([2]; 1 μM) | Inhibition ratio (%) against capillary-like tube formation ([2]; 10 μM) | Number of networks Average ± SD ([2]; 10 μM) | Inhibition ratio (%) against capillary-like tube formation ([2]; 100 μM) | Number of networks Average ± SD ([2]; 100 μM) | IC50 (human MMP-3) | inhibition ratio of tumor growth of Meth A/AD ([1]; 30 mg/kg) | Tumor growth inhibition ratio (%) ([1]; intraperitoneal, Day 24) | Tumor volume (Day 24) Average ± standard deviation ([1]; intraperitoneal, Day 24, vehicle control 2045 ± 987)
CCOCCOc1cc(C(F)(F)F)cc(NNC(=C[N+](=O)[O-])NC)n1 [Compound No. 107] | 63.5% | 63.5* % | 386 ± 275* mm^3 | 35* % | 20.0 ± 5.7 | 41* % | 18.2 ± 1.6 | 62* % | 11.8 ± 5.0 | 93* % | 2.0 ± 2.8 | 22.3 µM |  |  | 
CS(=O)(=O)NC(=C[N+](=O)[O-])NNc1cc(C(F)(F)F)cc(Cl)n1 [Compound No. 157, N-(1-(6-chloro-4-trifluoromethyl-2-pyridyl)hydrazino-2-nitroethenyl)methanesulfonamide] |  |  |  |  |  |  |  |  |  |  |  | 24.2 µM |  |  | 
CCOCCOc1cc(C(F)(F)F)cc(NNC(=C[N+](=O)[O-])NS(C)(=O)=O)n1 [Compound No. 164, N-(1-(6-(2-ethoxyethoxy)-4-trifluoromethyl-2-pyridyl)hydrazino-2-nitroethenyl)methanesulfonamide] |  |  |  | 23% | 23.6 ± 3.2 | 44* % | 17.2 ± 4.1 | 44* % | 17.2 ± 6.0 | 66* % | 10.4 ± 5.7 | 17.8 µM | 49.8% | 49.8* % | 1027 ± 907* mm^3
